In article PMC8602566 (Frontiers in Oncology, 2021):

Experiments:
HDAC1 = HDAC1 (Homo sapiens, UniProt Q13547); assay: HDACs inhibition assay, HDAC1
Procedure: (§3) The inhibition assays for HDACs were carried out according to standard protocols. […] The reaction was stopped by the addition of 45 μl of 100 mM HEPES (pH 7.5) and 0.08% sodium dodecyl sulfate (SDS). The substrate and the product were then separated electrophoretically using a LabChip 3000 system (Caliper Life Sciences, Hopkinton, MA) with blue laser excitation and green fluorescence detection.

[1] = tested on: acetylated histone H3 in U87 cells; assay: Western blot analysis for H3-histone acetylation; type: cell-based, Human
Procedure: U87 cells (5 × 10^5 cells/ml) in six-well plates were incubated with DMC-HA and lysed in radioimmunoprecipitation assay (RIPA) buffer containing protease and phosphatase inhibitors. Protein contents in the lysates were determined by Bradford’s assay, and 50 μg was separated by SDS polyacrylamide gel electrophoresis (SDS-PAGE) electrophoresis. Proteins were transferred to membranes and probed with human anti-acetylated H3 and anti-β actin antibodies as a loading control. Membranes were then labeled with the appropriate horseradish peroxidase (HRP)-conjugated immunoglobulin G (IgG), and protein bands were visualized using enhanced chemiluminescence. (Bio-Rad, Hercules, CA, USA).
Next, DMC-HA-induced acetylation of histone H3 in living cells was analyzed using Western blot method.

all eight cell lines = assay: Antiproliferative activity, panel of eight cancer cell lines (summary); type: cell-based; conditions: Homo sapiens; summary over the eight cancer cell lines of Table 2; read-out: IC50 values against all eight cell lines
Procedure: Cells (5 × 10^4) were seeded into 96-well plates and exposed to vehicle (PBS) or different concentrations of compounds for 72 h. Cell viability was measured using the 3-(4,5-dimethylthiazol-2-yl)-2,5-diphenyltetrazolium bromide (MTT) assay and was expressed as a ratio to the absorbance value at 570 nm of the control cells.
As DMC-HA was identified as a potent novel inhibitor for HDACs, its antiproliferative activities on a panel of cancer cell lines and normal cells were evaluated, including four glioma cell lines, and the results are shown in Table 2. Vorinostat and curcumin were also tested as positive controls. […].

U87 tumor xenograft = conditions: nude mice, 20 mg/kg once daily
Text: Six-week-old BALB/c nude mice were purchased from Shanghai Experimental Animal Center of Chinese Academy of Science (Shanghai, China). All animal protocols were implemented according to the guidelines of the Association for Assessment and Accreditation of Laboratory Animal Care. U87 cells (3 × 10^6) were subcutaneously implanted into the right flank of mice. After 6 days of tumor growth, tumors grew to approximately 100 mm^3, and mice were randomly divided into three groups with nine animals in each group. […] The control group was intraperitoneally injected an equal volume of DMSO. Body weights and tumor volumes were measured every 2 days. After treatment, all of the mice were sacrificed, and the tumors were harvested, weighted, and photographed. The tumor volume was calculated according the formula: tumor volume = (length × width^2)/2.
U87 cells were subcutaneously inoculated into the right flank of mice.

[2] = Hepatic microsome stability assay, mice; type: in vitro ADME; conditions: mouse liver microsomes, NADPH, 37°C, pH 7.4
Procedure: (§1) Metabolic stability was assessed in the presence of human, mouse, and rat liver microsomes (XenoTech, Lenexa, KS, USA). All liquid dispenses and transfer steps were performed with the Freedom Evo automated liquid handler (Tecan US). Compound stock solutions were initially prepared in 100% DMSO and subsequently diluted in acetonitrile for the assay. The pH of the reactions was kept at 7.4 with potassium phosphate buffer. The reaction wells were prepared by adding microsomes to a well and allowed to warm to 37°C. Then, compound was added to each well. The reactions were […] by adding cofactor reduced nicotinamide adenine dinucleotide phosphate (NADPH) to the reaction well containing microsomes and compounds. Negative controls received buffer only. Immediately after reactions started, 0-min aliquots were promptly collected and mixed in a separate well with ice cold acetonitrile to quench the reactions. The remainder of the reaction volume was incubated at 37°C with shaking. An additional aliquot was collected at 60 min after the start of the reaction and promptly quenched with ice cold acetonitrile. Samples were vortexed and centrifuged at 3,500 rpm for 10 min. The amount of compound in the supernatant was determined by liquid chromatography–tandem mass spectrometry (LC/MS/MS) (Thermo Fischer Scientific, San Jose, CA, USA), and the percent of parent compound remaining after 60 min was calculated. Results are the mean of each reaction triplicate, normalized to the internal standard, and expressed as the percent of compound remaining after the incubation time.
(§2) Structures that are active in vitro may not be potent in vivo due to their susceptibility to metabolism in the body. We then thoroughly examined the liver microsomal metabolic stability of DMC-HA across three different species (Table 3). […] In addition, the half-life of DMC-HA in human microsome is generally two to three times longer than those in mice and rats. Collectively, the in vitro liver microsomal stability of DMC-HA is favorable, guaranteeing its further in vivo studies.

SIRT1 = SIRT1 (Homo sapiens, UniProt Q96EB6); assay: HDACs inhibition assay, SIRT1
Procedure: as §3

HDAC4 = HDAC4 (Homo sapiens, UniProt P56524); assay: HDACs inhibition assay, HDAC4
Procedure: as §3

[3] = Plasma and brain distribution study; type: in vivo; conditions: mice, single administration, i.v. 5 mg/kg or p.o. 10 mg/kg
Text: Discovery of drugs for the treatment of GBM encounters formidable challenges to their ability to cross the blood–brain barrier (BBB) ([31]). Thus, we further investigated the distribution of DMC-HA to identify whether it has the ability to cross the BBB. […] In addition, stable and durable distribution of DMC-HA in the brain was observed after p.o. administration. Nevertheless, optimization for the balance among potency, selectivity, metabolic stability, and brain permeability in a single molecule was challenging. These preliminary results provide valuable information for further structure optimization of DMC-HA and a guidance for its following in vivo studies.
Figure 5 Concentrations of DMC-HA in plasma and brain over time following a single administration in mice. Left, i.v. 5 mg/kg; right, p.o. 10 mg/kg.

HDAC3 = HDAC3 (Homo sapiens, UniProt O15379); assay: HDACs inhibition assay, HDAC3
Procedure: as §3

U87 cells = assay: LDH release; type: cell-based, Human; conditions: increasing concentrations, 48 h
HDAC5 = HDAC5 (Homo sapiens, UniProt Q9UQL6); assay: HDACs inhibition assay, HDAC5
Procedure: as §3

[4] = tested on: Human lung cancer cell line A549; assay: MTT cell viability assay, A549; type: cell-based; conditions: A549, MTT, 72 h, read-out: IC50 antiproliferative activity A549
Procedure: Cell viability was measured using the 3-(4,5-dimethylthiazol-2-yl)-2,5-diphenyltetrazolium bromide (MTT) assay and was expressed as a ratio to the absorbance value at 570 nm of the control cells.

[5] = Hepatic microsome stability assay, human; type: in vitro ADME; conditions: human liver microsomes, NADPH, 37°C, pH 7.4
Procedure: as §1, §2

Sequence of HDAC3 (O15379 whole entry): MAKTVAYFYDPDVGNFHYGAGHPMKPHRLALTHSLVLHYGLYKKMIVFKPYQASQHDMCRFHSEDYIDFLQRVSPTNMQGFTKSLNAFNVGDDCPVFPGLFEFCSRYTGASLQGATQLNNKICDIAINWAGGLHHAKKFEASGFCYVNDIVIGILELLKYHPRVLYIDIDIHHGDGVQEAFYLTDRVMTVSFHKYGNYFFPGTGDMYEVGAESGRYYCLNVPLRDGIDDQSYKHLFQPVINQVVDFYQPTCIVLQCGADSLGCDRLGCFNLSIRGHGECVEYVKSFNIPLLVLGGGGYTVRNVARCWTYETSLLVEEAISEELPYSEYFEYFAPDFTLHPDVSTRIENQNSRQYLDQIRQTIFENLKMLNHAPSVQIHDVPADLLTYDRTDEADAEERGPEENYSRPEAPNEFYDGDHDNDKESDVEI
Sequence of HDAC3 (Q9Y618 395-489 partner limits assumed): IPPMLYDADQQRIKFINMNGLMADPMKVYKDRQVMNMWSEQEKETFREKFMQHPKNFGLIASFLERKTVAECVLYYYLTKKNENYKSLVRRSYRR
Sequence of SIRT1 (Q96EB6 whole entry): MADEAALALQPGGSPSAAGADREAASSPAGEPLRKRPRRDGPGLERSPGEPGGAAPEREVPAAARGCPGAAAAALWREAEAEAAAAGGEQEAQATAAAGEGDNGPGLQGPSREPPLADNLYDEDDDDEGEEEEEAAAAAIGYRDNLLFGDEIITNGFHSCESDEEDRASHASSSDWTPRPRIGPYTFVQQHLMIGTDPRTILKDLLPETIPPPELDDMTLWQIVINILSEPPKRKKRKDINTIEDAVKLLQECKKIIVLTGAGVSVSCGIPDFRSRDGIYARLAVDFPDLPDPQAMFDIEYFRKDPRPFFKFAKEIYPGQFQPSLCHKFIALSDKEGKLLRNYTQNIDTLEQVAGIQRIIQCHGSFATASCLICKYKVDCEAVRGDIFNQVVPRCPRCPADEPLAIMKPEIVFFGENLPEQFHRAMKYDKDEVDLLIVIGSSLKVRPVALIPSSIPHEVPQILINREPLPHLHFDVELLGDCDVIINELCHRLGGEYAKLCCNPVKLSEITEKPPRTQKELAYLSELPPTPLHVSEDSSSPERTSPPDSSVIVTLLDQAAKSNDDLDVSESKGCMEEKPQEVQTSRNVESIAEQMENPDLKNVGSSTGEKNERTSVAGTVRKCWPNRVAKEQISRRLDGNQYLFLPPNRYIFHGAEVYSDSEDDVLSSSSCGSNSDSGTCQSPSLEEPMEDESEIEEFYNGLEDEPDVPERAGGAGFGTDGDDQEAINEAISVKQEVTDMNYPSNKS
Sequence of HDAC1 (Q13547 whole entry): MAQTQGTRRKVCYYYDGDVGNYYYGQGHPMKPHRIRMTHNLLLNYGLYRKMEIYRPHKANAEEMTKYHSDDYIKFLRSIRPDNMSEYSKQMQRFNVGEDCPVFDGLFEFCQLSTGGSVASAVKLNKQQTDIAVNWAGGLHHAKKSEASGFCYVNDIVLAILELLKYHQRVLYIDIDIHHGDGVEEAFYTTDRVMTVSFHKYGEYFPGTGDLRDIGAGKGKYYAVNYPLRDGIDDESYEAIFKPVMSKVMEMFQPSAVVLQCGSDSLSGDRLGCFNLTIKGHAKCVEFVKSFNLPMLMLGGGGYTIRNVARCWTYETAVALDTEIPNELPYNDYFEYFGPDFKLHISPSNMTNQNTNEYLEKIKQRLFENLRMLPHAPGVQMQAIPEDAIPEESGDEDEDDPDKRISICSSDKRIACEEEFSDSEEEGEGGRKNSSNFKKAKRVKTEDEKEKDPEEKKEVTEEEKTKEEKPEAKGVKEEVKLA
Sequence of HDAC4 (P56524 whole entry): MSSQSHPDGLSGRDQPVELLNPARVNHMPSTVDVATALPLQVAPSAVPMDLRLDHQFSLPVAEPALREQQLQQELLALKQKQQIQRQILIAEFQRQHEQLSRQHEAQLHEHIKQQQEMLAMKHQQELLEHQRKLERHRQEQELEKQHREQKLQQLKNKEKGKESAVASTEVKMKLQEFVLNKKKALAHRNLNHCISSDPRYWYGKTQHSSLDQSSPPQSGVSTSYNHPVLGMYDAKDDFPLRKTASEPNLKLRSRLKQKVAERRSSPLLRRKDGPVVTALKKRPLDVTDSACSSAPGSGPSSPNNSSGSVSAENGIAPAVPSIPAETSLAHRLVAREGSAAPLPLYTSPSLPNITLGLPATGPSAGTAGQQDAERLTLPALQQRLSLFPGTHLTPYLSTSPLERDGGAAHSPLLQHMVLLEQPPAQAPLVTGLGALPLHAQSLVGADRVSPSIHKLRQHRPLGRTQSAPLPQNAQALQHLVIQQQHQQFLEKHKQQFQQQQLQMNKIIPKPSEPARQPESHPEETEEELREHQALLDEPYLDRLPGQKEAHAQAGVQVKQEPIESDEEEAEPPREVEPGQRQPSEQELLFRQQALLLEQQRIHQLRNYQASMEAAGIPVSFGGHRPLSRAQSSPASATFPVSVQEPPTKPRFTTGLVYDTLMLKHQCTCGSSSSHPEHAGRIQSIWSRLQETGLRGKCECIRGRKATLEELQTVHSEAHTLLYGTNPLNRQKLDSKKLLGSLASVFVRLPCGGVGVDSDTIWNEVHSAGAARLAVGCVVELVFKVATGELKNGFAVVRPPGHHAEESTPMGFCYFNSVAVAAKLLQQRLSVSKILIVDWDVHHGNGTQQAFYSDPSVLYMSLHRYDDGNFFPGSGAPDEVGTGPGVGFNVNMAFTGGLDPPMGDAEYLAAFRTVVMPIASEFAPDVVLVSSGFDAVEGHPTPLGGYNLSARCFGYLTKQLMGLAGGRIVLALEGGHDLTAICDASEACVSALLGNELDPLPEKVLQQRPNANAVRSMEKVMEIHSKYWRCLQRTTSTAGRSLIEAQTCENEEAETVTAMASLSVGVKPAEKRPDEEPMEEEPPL
Sequence of HDAC5 (Q9UQL6 whole entry): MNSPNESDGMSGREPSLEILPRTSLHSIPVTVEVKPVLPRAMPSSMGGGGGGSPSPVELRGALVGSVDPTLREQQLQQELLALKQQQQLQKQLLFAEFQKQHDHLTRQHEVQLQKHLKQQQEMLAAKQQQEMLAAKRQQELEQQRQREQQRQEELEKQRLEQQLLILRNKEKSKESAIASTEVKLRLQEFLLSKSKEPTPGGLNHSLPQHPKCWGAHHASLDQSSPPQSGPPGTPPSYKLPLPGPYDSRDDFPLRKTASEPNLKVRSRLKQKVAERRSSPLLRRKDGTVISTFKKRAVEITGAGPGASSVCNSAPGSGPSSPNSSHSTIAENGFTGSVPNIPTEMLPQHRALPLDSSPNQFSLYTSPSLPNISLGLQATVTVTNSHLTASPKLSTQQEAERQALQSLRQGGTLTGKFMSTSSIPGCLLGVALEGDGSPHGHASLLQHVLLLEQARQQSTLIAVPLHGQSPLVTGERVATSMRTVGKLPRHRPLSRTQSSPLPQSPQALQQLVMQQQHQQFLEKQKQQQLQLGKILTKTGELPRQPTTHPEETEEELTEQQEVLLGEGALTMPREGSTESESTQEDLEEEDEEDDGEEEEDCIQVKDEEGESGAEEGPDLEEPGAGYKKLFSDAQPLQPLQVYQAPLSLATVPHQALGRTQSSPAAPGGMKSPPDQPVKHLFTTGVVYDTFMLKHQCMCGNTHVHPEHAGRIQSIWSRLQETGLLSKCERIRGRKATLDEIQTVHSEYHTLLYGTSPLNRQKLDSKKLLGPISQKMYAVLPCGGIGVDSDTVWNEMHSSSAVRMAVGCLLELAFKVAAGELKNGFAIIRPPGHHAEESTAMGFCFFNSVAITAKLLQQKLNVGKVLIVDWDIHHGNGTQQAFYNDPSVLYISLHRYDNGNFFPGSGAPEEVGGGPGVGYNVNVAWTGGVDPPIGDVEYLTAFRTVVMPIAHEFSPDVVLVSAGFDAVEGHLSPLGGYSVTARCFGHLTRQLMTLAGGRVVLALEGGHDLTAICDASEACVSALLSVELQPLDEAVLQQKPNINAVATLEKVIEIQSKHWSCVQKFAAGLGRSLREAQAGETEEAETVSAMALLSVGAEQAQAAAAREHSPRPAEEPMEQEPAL

In the case of COc1cc(/C=C/C(=O)CC(=O)/C=C/c2ccc(/C=C/C(=O)NO)cc2)ccc1O [DMC-HA], the IC50 (HDAC1) is reported as 0.51 µM, the “acetylation of histone H3, time dependence” value ([1]; 5 μM, different times) is reported as “increased in a time-dependent manner” and the “acetylation of histone H3, dose dependence” value ([1]; various concentrations, 24 h) is reported as “dose dependently increased the acetylation of histone H3”. For the same compound, the IC50 (all eight cell lines) was less than 5.3 µM, the “effects on the body weight” value (U87 tumor xenograft) was “no effects on the body weight” and the “toxicity during the administration period” value (U87 tumor xenograft) was “no observable toxicity”. For the same compound, the tumor weight (U87 tumor xenograft; compared with controls) was “significantly lower tumor weight”, the “inhibition on the tumor volume” value (U87 tumor xenograft; oral route / intraperitoneal, vs. control) was 52.1% and the “Mice Liver Microsomal Stability T1/2” value [2] was 0.545 h. For the same compound, the microsomal CLint [2] was 43.2 µL/min/mg, the IC50 (SIRT1) was greater than 10 µM and the IC50 (HDAC4) was greater than 10 µM. The “ability to cross the BBB” value [3] was “can indeed penetrate the BBB”, the Kp ([3]; mouse, brain and plasma, other: intravenous and oral (i.v. and p.o. arms), over time, read-out: brain-to-plasma ratios) was 0.08 to 0.23 and the IC50 (HDAC3) was 1.67 µM. For the same compound, the “LDH release / cell death” value (U87 cells) was “induces cell death in a dose-dependent manner”, the IC50 (HDAC5) was greater than 10 µM and the IC50 [4] was 5.33 ± 0.93 µM. The “Human Liver Microsomal Stability T1/2” value [5] was 1.53 h and the microsomal CLint [5] was 17.5 µL/min/mg.
